Measurements from ChEMBL document CHEMBL1150755, “2,4,5-trimethoxystyrene, a bioactive component of the bark of Duguetia panamensis” (J Nat Prod, 1988).
Converted amounts (≈) assume the structure as drawn.

Tests used:
Artemia = test: Toxicity in brine shrimp; type: organism-based; conditions: in vivo
[1] = Cytotoxicity against human 9KB cells; type: functional; conditions: read-out: ED50 (the source's name)
[2] = Cytotoxicity against mouse 9PS cells; type: functional; conditions: read-out: ED50 (the source's name)

In the case of C=Cc1cc(OC)c(OC)cc1OC, the LC50 (Artemia) is reported as 8 ppm, the EC50 [1] is reported as 42 µg/mL (≈ 216 µM) and the EC50 [2] is reported as 27 µg/mL (≈ 139 µM).
